Assay results: patent publication US7659399B2, “1-thia-2,4a-diaza-cyclopenta[b]napththalene-3,4-diones and related compounds as anti-infective agents” (Achillion Pharmaceuticals, Inc., priority 2005, dated 2010)
Where a name gives a salt, the structure may show the parent alone.

Legend:
S. aureus DNA gyrase = S. aureus DNA gyrase (Staphylococcus aureus, UniProt P0A0K8+P20831); assay: DNA gyrase supercoiling assay; type: biochemical; details: do not inhibit
[1] = biological target: T1, S. aureus topoisomerase IV (Staphylococcus aureus, UniProt P0C1S7+P0C1U9); assay: Topoisomerase IV decatenation assay; type: biochemical; details: decatenation of kinetoplast DNA; read-out: inhibition of S. aureus topoisomerase IV activity IC50
T1 construct: made in house; host or cells: E. coli
Protocol: Enzyme activity is measured by a decatenation assay that monitors the ATP-dependent unlinking of DNA minicircles from kinetoplast DNA. Analysis is done by gel electrophoresis through 1% agarose/TBE gel. DNA is visualized with an Alpha Imager 2200 Analysis System and the IC50 determined by nonlinear regression analysis with Graphpad Prism software. S. aureus topoismerase IV enzyme subunits, grlA and grlB, are purified to homogeneity from over-expression plasmids in E. coli.

E. coli DNA gyrase = biological target: T2, E. coli DNA gyrase (Escherichia coli, UniProt P0AES4+P0AES6); assay: DNA gyrase supercoiling assay; type: biochemical
T2 construct: made in house; host or cells: E. coli
Protocol: Enzyme activity is measured by a supercoiling assay that monitors the ATP-dependent conversion of relaxed pBR322 DNA to the supercoiled form. Analysis is done by gel electrophoresis through 1% agarose/TBE gel. DNA is visualized with an Alpha Imager 2200 Analysis System and the IC50 determined by nonlinear regression analysis with Graphpad Prism software. E. coli DNA gyrase enzyme subunits, gyrA and gyrB, are purified to homogeneity from over-expression constructs in E. coli.

E. coli ATCC 25922 = assay: Minimum inhibitory concentration (MIC) assay, broth microdilution; type: cell-based; details: Escherichia coli, ATCC25922
Protocol: (§1) The antimicrobial activity of the compounds of the invention may be evaluated by a number of methods, including the following visual minimum inhibitory concentration (MIC) assay. This assay determines the minimum concentration of compound required to inhibit growth of a bacterial strain.
(§2) Whole-cell antibacterial activity is determined by broth microdilution using conditions recommended by the National Committee for Clinical Laboratory Standards (NCCLS).
(§3) Test compounds are dissolved in DMSO and diluted 1:50 in Mueller-Hinton II broth (Becton-Dickinson) to produce a 256 μg/ml stock solution. In a 96-well microtiter plate, the compound solution is serially two-fold diluted in Mueller-Hinton II broth. After the compounds are diluted, a […] aliquot of the test organism (˜1×10^6 cfu/mL) is added to each well of the microtiter plate. The final test concentrations range from 0.125-128 μg/mL. Inoculated plates are incubated in ambient air at 37° C. for 18 to 24 hours. The organisms selected for testing included laboratory strains S. aureus ATCC 29213 and E. coli ATCC 25922 (strains purchased from American Type Culture Collection, Manassas, Va.). The minimum inhibitory concentration (MIC) was determined as the lowest concentration of compound that inhibited visible growth of the test organism.

S. aureus ATCC 29213 = assay: as above; type: cell-based; details: Staphylococcus aureus, ATCC29213
Protocol: as §1, §2, §3

[2] = system: CHO (Chinese hamster ovary); details: CHO cells; positive control, known CC50; cited from earlier work
[3] = system: HEP 2 (laryngeal carcinoma); details: HEP 2 cells; positive control, known CC50; cited from earlier work

T2 sequence (P0AES4 whole entry, one chain of several): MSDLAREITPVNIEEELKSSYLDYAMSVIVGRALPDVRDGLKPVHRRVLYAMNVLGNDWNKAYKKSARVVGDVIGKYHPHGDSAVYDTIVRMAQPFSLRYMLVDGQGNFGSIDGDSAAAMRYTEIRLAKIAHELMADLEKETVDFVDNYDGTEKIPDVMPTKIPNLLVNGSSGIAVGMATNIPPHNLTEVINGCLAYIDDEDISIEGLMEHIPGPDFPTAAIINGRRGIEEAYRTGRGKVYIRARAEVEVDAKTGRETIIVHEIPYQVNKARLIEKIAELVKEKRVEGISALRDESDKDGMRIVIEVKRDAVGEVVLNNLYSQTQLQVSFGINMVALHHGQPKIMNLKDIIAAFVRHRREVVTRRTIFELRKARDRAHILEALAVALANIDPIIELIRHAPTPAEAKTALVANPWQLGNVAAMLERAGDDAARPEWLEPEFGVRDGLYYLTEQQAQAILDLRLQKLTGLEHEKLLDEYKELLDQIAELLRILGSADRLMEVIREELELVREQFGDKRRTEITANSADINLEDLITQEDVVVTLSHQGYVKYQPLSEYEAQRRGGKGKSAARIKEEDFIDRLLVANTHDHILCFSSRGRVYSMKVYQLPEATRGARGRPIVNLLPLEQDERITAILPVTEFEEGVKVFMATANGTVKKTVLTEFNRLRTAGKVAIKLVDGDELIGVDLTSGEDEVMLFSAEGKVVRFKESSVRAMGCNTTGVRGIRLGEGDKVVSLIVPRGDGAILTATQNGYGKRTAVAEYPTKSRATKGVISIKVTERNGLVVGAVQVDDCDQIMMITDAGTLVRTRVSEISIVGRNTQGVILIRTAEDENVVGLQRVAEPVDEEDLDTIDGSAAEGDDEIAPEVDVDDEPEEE
T1 sequence (P0C1U9 whole entry): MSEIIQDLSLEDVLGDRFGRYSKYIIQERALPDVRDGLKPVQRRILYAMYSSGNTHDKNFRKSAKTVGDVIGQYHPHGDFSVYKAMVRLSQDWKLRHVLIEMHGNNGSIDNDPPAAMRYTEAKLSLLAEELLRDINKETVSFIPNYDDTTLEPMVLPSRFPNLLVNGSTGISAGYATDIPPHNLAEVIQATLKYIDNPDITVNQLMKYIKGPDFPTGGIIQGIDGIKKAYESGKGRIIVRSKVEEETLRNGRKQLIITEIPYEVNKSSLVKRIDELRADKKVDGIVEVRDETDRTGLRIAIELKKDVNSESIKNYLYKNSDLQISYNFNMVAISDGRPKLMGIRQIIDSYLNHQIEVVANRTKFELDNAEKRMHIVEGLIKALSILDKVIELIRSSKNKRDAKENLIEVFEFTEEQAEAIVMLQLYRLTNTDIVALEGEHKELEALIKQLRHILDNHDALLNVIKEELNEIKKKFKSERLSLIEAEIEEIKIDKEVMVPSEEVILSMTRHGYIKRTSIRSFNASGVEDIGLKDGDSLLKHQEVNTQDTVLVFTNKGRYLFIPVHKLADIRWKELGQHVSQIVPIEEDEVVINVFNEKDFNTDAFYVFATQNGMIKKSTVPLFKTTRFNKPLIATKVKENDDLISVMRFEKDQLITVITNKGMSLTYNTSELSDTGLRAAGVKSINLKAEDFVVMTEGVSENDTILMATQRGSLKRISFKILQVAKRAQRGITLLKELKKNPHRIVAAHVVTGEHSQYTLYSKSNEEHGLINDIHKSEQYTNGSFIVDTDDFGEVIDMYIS
T1 sequence (P0C1S7 whole entry): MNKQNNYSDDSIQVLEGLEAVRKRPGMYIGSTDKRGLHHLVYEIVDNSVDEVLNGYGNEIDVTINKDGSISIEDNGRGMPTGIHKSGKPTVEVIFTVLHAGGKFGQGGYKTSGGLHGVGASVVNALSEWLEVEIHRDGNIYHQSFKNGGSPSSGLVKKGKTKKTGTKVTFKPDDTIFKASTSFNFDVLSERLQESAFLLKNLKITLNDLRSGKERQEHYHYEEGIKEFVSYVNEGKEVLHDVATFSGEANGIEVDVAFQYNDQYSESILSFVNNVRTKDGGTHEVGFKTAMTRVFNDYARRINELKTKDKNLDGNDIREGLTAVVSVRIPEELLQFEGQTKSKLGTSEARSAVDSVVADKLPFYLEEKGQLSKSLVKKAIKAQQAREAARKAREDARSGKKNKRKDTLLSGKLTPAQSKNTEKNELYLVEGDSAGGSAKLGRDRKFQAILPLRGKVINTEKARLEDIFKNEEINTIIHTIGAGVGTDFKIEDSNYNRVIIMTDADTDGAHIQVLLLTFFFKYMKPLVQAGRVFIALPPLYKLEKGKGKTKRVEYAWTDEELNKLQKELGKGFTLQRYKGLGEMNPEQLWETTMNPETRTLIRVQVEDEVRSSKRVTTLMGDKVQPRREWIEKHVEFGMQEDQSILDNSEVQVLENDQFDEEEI
S. aureus DNA gyrase, sequence (P20831 whole entry): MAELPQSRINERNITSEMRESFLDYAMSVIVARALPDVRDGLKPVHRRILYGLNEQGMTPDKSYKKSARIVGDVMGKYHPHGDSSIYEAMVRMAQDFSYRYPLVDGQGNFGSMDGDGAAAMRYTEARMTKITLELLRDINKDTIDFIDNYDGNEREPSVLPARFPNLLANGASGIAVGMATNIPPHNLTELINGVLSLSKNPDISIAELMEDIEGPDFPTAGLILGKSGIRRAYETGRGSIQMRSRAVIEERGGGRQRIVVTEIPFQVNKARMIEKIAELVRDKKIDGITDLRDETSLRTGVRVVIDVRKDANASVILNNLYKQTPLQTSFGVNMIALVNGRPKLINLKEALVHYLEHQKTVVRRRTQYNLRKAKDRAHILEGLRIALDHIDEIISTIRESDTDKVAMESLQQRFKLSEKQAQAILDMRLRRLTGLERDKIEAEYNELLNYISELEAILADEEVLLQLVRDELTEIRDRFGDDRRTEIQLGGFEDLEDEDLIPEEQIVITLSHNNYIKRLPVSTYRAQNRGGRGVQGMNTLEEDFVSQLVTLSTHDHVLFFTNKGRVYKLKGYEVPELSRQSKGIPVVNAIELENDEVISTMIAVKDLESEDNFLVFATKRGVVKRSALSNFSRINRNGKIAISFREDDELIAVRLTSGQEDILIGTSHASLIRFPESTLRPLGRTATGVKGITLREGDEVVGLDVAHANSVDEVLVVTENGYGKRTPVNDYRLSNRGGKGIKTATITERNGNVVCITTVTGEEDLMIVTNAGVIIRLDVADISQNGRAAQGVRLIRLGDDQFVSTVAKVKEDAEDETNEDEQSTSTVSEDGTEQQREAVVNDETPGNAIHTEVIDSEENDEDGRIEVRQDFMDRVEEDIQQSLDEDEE
S. aureus DNA gyrase, sequence (P0A0K8 whole entry): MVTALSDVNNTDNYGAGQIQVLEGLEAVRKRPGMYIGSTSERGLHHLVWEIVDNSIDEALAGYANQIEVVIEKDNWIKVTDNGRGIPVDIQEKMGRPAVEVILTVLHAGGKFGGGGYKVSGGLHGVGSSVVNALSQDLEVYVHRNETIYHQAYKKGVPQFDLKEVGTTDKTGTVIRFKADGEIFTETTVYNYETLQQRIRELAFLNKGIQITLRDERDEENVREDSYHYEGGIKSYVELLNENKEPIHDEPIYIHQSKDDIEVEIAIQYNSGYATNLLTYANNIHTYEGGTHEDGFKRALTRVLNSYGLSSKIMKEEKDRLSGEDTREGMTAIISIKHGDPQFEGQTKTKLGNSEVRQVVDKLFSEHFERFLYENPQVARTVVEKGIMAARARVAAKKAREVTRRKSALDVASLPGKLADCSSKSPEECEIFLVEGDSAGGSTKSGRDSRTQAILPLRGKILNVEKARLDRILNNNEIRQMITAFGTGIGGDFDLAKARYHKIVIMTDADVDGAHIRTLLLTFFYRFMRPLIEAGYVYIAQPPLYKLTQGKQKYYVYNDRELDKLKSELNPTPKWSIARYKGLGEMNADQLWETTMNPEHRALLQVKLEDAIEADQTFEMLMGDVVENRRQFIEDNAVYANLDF

Structure (SMILES) | melting point | IC50 (S. aureus DNA gyrase) [µM] | IC50 [1] [µM] | IC50 (E. coli DNA gyrase) [nM] | MIC (E. coli ATCC 25922) [µg/mL] | MIC (S. aureus ATCC 29213) [µg/mL] | CC50 [2] [µM] | CC50 [3] [µM]
CCc1c2s[nH]c(=O)c2c(=O)n2ccc(-c3ccncc3)cc12 (as salt: hydrochloride) [Compound 8, 9-Ethyl-7-pyridin-4-yl-1-thia-2,4a-diaza-cyclopenta[b]naphthalene-3,4-dione hydrochloride] | 289 to 290 °C (dec.) | – | – | – | – | – | – | –
CCc1c2s[nH]c(=O)c2c(=O)n2ccc(-c3cc(C)nc(C)c3)cc12 (as salt: hydrochloride) [Compound 9, 7-(2,6-Dimethylpyridin-4-yl)-9-ethyl-1-thia-2,4a-diaza-cyclopenta[b]naphthalene-3,4-dione hydrochloride] | 279 to 280 °C (dec.) | – | – | – | – | – | – | –
CCc1c2s[nH]c(=O)c2c(=O)n2ccc(-c3ccncc3)cc12 [Compound 8, 9-Ethyl-7-pyridin-4-yl-1-thia-2,4a-diaza-cyclopenta[b]naphthalene-3,4-dione hydrochloride] | – | > 200 | < 10 | < 1000 | 10 | 10 | – | –
CCc1c2s[nH]c(=O)c2c(=O)n2ccc(-c3cc(C)nc(C)c3)cc12 [Compound 9, 7-(2,6-Dimethylpyridin-4-yl)-9-ethyl-1-thia-2,4a-diaza-cyclopenta[b]naphthalene-3,4-dione hydrochloride] | – | > 200 | < 10 | < 1000 | 10 | 10 | – | –
CC(C)(C)c1ccc(C(O)CCCN2CCC(C(O)(c3ccccc3)c3ccccc3)CC2)cc1 (centres unmarked) [Terfenadine] | – | – | – | – | – | – | 4.3 to 6.5 | 3 to 5
